# Test results: US11241421B2, “Combination therapies for treating cancer” (UNIVERSITY OF VIRGINIA PATENT FOUNDATION, priority 2016, dated 2022)
# Tests used:
# [1] = relative to the methoxy compound; cited from earlier work
# [2] = test system: CBFβ-SMMHC fusion protein; settings: cited from earlier work
# [3] = target: T1, CBFβ (Homo sapiens, UniProt Q13951); settings: cited from earlier work
# T1 sequence (Q13951 1-182): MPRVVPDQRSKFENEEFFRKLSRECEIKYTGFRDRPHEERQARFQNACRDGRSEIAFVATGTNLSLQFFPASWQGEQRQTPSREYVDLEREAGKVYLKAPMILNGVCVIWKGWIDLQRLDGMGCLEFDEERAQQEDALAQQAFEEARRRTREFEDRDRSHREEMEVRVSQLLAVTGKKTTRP
# [4] = test system: Cbfb^+/MYH11; Nras^+/G12D leukemic cells; test: Leukemia transplantation studies in mice (inv(16) AML model); format: in vivo; settings: for white blood cell count: peripheral blood, doxorubicin 2 mg/kg single dose, AI-10-49 200 mg/kg daily intraperitoneally for 10 days, FIG. 1; for Lin-Sca1-c-Kit+ cell population (number of cells): spleen, flow cytometry, same dosing, FIG. 4
# Description: The experiments with animals were performed in accordance with a protocol reviewed and approved by the University of Massachusetts Institutional Animal Care and Use Committee. An efficient mouse model of inv(16)AML was used. (L. Xue, et al., 2014.) Leukemic cells carrying Cbfb^+/MYH11 and Nras^+/G12D oncogenic alleles were generated in CD45.2 C57BL/6 mice, as previously described (Illendula, et al., 2015.) Briefly, 2×10^3 Cbfb^+/MYH11; Nras^+/G12D leukemic cells were transplanted into each of 16 sub-lethally irradiated six to eight-week-old CD45.1 C57BL/6 female mice. Five days post-transplant, mice were placed in 4 groups with 4 mice in each group: DMSO (control, 50 μL), Dox, AI-10-49, and Dox+AI-10-49. Both Dox groups received a single dose of doxorubicin (2 mg/kg) 5 days post-transplant. Both AI-10-49 groups received a daily dose of AI-10-49 (200 mg/kg) in DMSO injected intraperitoneally for 10 days. After this 10-day period, all mice were sacrificed and analyzed for leukemia burden via several measures. Mice were kept under observation by more than one person to determine the median leukemia latency, and were euthanized once signs of disease were detected, including reduced motility and grooming activity, hunched back, pale paws (anemia), and hypothermia. At time of euthanasia, peripheral blood and spleen cells were extracted and analyzed as previously described (Y. H. Kuo, et al., 2006.). Leukemia burden was analyzed in peripheral blood by measuring the total white blood cell counts, the number of cells in the c-kit(+)-gated population, spleen weight and cell number, and spleen Lin-Sca1-c-kit+ population. For Kit+ and Lin-Sca-Kit+ results, flow cytometry was used to measure the effect.
# [5] = test system: ME-1 cell line, a leukemia cell line with inv(16); settings: cited from earlier work
# [6] = compared with doxorubicin; cited from earlier work
# [7] = compared with daunorubicin; cited from earlier work
# [8] = compared with daunorubicin; cited from earlier work; remark: listed apart in the source
structure (smiles),measurement,setting,value
"FC(F)(F)Oc1ccc2[nH]c(-c3ccccn3)nc2c1 [A-10-47, 2-(pyridin-2-yl)-5-(trifluoromethoxy)-1H-benzo[d]imidazole]",metabolic stability,[1],enhanced metabolic stability
"COc1ccc2[nH]c(-c3ccccn3)nc2c1 [AI-4-57, 5-methoxy-2-(pyridin-2-yl)-1H-benzo[d]imidazole]",binding to the CBFβ-SMMHC fusion protein,[2],binds to the CBFβ portion of the CBFβ-SMMHC fusion protein
same,inhibition of CBFβ-SMMHC binding to the Runt domain of RUNX proteins,[2],inhibits its binding to the Runt domain of RUNX proteins
FC(F)(F)Oc1ccc2[nH]c(-c3ccc(OCCOCCOc4ccc(-c5nc6cc(OC(F)(F)F)ccc6[nH]5)nc4)cn3)nc2c1 [AI-10-49],inhibition of CBFβ-SMMHC binding to the Runt domain of RUNX proteins,[2],potent and CBFβ-SMMHC specific
same,effect on CBFβ function,[3],minimal effect
same,white blood cell count,[4],reduced
same,Lin-Sca1-c-Kit+ cell population (number of cells),[4],modest effect
same,cell death,[5],induced cell death
"COc1cccc2c1C(=O)c1c(O)c3c(c(O)c1C2=O)C[C@@](O)(C(=O)CO)C[C@@H]3O[C@H]1C[C@H](N)[C@H](O)[C@H](C)O1 [Dox, doxorubicin]",white blood cell count,[4],reduced
same,Lin-Sca1-c-Kit+ cell population (number of cells),[4],no effect
COc1cccc2c1C(=O)c1c(O)c3c(c(O)c1C2=O)C[C@@](O)(C(=O)CO)C[C@@H]3O[C@H]1C[C@H](N)[C@@H](O)[C@H](C)O1 [Epirubicin],half-life,[6],longer
same,volume of distribution,[6],increased
CC(=O)[C@]1(O)Cc2c(O)c3c(c(O)c2[C@@H](O[C@H]2C[C@H](N)[C@H](O)[C@H](C)O2)C1)C(=O)c1ccccc1C3=O [Idarubicin],cellular uptake,[7],higher
same,lipophilicity,[8],more lipophilic
